# Measurements: patent US5591849A, “Spiro[naphthalene-2(1H),2'-piperidine] and their use” (Takeda Chemical Industries, Ltd., priority 1994, dated 1997)
# Where a name gives a salt, the structure may show the parent alone.
# Target: T1, Monoamine oxidase B (MAO-B) (Rattus norvegicus, UniProt P19643)
# T1 construct: Whole rat brains were homogenized in a 10-fold volume of ice cooled 0.32 mM sucrose solution; from tissue; host or cells: whole rat brain homogenate
# T1 sequence (P19643 1-520): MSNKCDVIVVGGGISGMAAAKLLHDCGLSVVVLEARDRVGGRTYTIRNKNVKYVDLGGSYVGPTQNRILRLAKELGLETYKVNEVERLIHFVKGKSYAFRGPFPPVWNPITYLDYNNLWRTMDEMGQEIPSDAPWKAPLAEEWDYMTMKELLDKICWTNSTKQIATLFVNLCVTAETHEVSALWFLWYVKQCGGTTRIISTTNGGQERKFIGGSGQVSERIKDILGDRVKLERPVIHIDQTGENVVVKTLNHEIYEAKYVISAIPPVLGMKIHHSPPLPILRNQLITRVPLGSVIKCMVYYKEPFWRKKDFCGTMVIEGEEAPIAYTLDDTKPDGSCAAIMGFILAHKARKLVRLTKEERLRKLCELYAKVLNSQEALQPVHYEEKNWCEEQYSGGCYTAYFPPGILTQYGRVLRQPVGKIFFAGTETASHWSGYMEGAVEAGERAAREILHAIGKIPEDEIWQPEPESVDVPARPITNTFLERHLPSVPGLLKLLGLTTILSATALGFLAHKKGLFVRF
# Assay: Monoamine oxidase B (MAO-B) inhibitory activity
# Assay type: biochemical
# Settings: not given
# Description: Monoamine oxidase B (MAO-B) inhibitory activity
# Whole rat brains were homogenized in a 10-fold volume of ice cooled […] sucrose solution and diluted with a 10-fold volume of 10 mM phosphate buffer (pH 7.4). To 90 μl of this enzyme specimen, 1 μl of the test drug solution was added, followed by 10 minutes of incubation at 37° C. To the mixture, 10 μM of 14C-phenylethylamine was added, followed by 5 minutes of incubation at 37° C. After the reaction was stopped by the addition of 20 μl of 3M hydrochloric acid, 1 ml of water-saturated toluene-ethyl acetate (1:1) was added. The radioactivity of the metabolite migrated in the organic layer was measured by the liquid scintillation method.
row,SMILES,IC50
1,"CCCN1CCCCC12CCc1cc(OCc3ccsc3)ccc1C2 (stereo not drawn) [Example 9-45, 3,4-Dihydro-1'-propyl-6-(3-thienylmethoxy)spiro[naphthalene-2(1H),2'-piperidine] hydrochloride]",0.06 µM

# System: 45Ca2+ uptake
# Assay: 45Ca2+ uptake inhibition experiments (veratrine-stimulated, rat cerebral cortex crude synaptosome fraction)
# Assay type: biochemical
# Settings: stimulated by 30 μM veratrine, rat cerebral cortex synaptosomes
# Description: ^45 Ca^2+ uptake inhibition experiments
# Rat cerebral cortex was homogenized with a 10-fold volume of 0.32M sucrose solution to yield a crude synaptosome fraction (100×g for 10 minutes, 12,000×g for 20 minutes). This fraction was homogenized in Tris buffer [neutralized with 132 mM sodium chloride, 5 mM potassium chloride, 1.3 mM magnesium chloride, 1.2 mM sodium dihydrogen phosphate, 1.2 mM calcium chloride, 10 mM glucose and 20 mM Tris base, saturated with a mixed gas (95% oxygen and 5% carbon dioxide)]. To 900 μl of this suspension, a DMSO solution (10 μl ) of the test drug was added, followed by 10 minutes of incubation at 37° C. 100 μl (final concentration 30μM) of a veratrine solution (containing 0.18 μci ^45 Ca^2+) was then added, followed by 10 minutes of incubation at 37° C. Subsequently, the reaction mixture was quenched by the addition of 4 ml of an ice cooled EGTA solution (120 mM sodium chloride, 5 mM potassium chloride, 5 mM EGTA, pH 7.5), and subjected to aspiration filtration through a GF/B filter; the filter was washed with two 4 ml portions of a washing solution (132 mM sodium chloride, 5 mM potassium chloride, 1.3 mM magnesium chloride, 1.2 mM calcium chloride, 20 mM Tris base, pH 7.5). The radioactivity on the filter was measured by the liquid scintillation method.
# ^45 Ca^2+ uptake suppression rates were calculated as follows: [formula]
# ^45 Ca^2+ uptake stimulated by 30 μM veratrine for 10 minutes in the presence of test drug
# B: ^45 Ca^2+ uptake in the absence of veratrine and in the presence of test drug
# C: ^45 Ca^2 + uptake stimulated by 30 μM veratrine for 10 minutes in the absence of test drug
# D: ^45 Ca^2 + uptake in the absence of veratrine and test drug
row,SMILES,45Ca Uptake Inhibitory Activity (% inhibition at 10 μM)
1,"COc1ccc2c(c1)CCC1(CCCCN1CCCC1CCN(Cc3ccccc3)CC1)C2.Cl.Cl (stereo not drawn) [Example 5-14, 3,4-Dihydro-6-methoxy-1'-[3-(1-phenylmethylpiperidin-4yl)propyl]spiro[naphthalene-2(1H),2'-piperidine] dihydrochloride]",74%
2,"COc1ccc2c(c1)CCC1(CCCCN1CCCc1ccccc1)C2 (stereo not drawn) [Example 5-9, 3,4-Dihydro-6-methoxy-1'-(3-phenylpropyl)spiro[naphthalene-(1H),2'-piperidine] hydrochloride]",92%
3,"COc1cccc(N2CCN(CCN3CCCCC34CCc3cc(OC)ccc3C4)CC2)c1.Cl.Cl (stereo not drawn) [Example 7-1, 3,4-Dihydro-6-methoxy-1'-[2-(4-(3-methoxyphenyl)piperazine-1-yl)ethyl]spiro[naphthalene-2(1H),2'-piperidine] dihydrochloride]",90%
4,"COc1ccc2c(c1)CCC1(CCCCN1CCN1CCC(c3ccccc3)CC1)C2.Cl.Cl (stereo not drawn) [Example 7-9, 3,4-Dihydro-6-methoxy-1'-[2-(4-phenylpiperidine-1-yl)ethyl]spiro[naphthalene-2(1H),2'-piperidine] dihydrochloride]",109%
5,"COc1ccc2c(c1)CCC1(CCCCN1CCN1CCN(c3ccccc3Cl)CC1)C2.Cl.Cl (stereo not drawn) [Example 7-3, 1'-[2-(4-(2-Chlorophenyl)piperazine-1-yl)ethyl]-3,4-dihydro-6-methoxyspiro[naphthalene-2(1H),2'-piperidine] dihydrochloride]",95%
6,"COc1ccc2c(c1)CCC1(CCCCN1CCN1CCN(c3ccc(F)cc3)CC1)C2 (stereo not drawn) [Example 7-5, 1'-[2-(4-(4-Fluorophenyl)piperazine-1-yl)ethyl]-3,4-dihydro-6-methoxyspiro[naphthalene-2(1H),2'-piperidine]dihydrochloride]",87%
7,"COc1ccc2c(c1)CCC1(CCCCN1CCOc1ccccc1)C2 (stereo not drawn) [Example 5-10, 3,4-Dihydro-6-methoxy-1'-(2-phenoxyethyl)spiro[naphthalene-(1H),2'-piperidine] hydrochloride]",88%
8,"COc1ccc2c(c1)CCC1(CCCCN1CCN1CCN(c3cccc(C(F)(F)F)c3)CC1)C2.Cl.Cl (stereo not drawn) [Example 7-6, 1'-[2-(4-(3-Trifluoromethylphenyl)piperazine-1-yl)ethyl]-3,4-dihydro-6-methoxyspiro[naphthalene-2(1H),2'-piperidine] dihydrochloride]",106%
